Reference: publication PMC4312629, “Pharmacokinetics of Etravirine Combined with Atazanavir/Ritonavir and a Nucleoside Reverse Transcriptase Inhibitor in Antiretroviral Treatment-Experienced, HIV-1-Infected Patients” (AIDS Research and Treatment, 2015)
Like-named read-outs stand apart in the source and are kept apart here.

What was measured:
[1] = TEACH: steady-state plasma pharmacokinetics of atazanavir and etravirine (LC-MS/MS, noncompartmental analysis); assay type: in vivo, HIV-1-infected patients
Description: Blood samples for analyses of atazanavir and ritonavir plasma concentrations were collected over 24 hours (before dose and 1, 2, 3, 4, 6, 9, 12, and 24 hours after dose) on the last day of the two-week pretreatment period and after Week 2 of the treatment period. Blood samples for evaluation of etravirine plasma concentrations were collected after Week 2. Atazanavir, ritonavir, and etravirine were assayed using validated liquid chromatography-mass spectrometry/mass spectrometry, with a lower limit of quantification of 250 ng/mL, 5.00 ng/mL, and 2.00 ng/mL, respectively.
Pharmacokinetic parameters were obtained using noncompartmental analysis (WinNonlin Professional version 4.1, Pharsight, Mountain View, CA, USA) and included C min, maximum plasma concentration (C max), and AUC12 h for etravirine and AUC24 h for atazanavir and ritonavir.
The least square means (LSM) of C min, C max, and AUC24 for atazanavir and ritonavir were estimated with a linear mixed-effects model, including treatment as fixed effect and subject as a random effect (SAS version 9.3, SAS Institute, Cary, NC, USA). A 90% confidence interval (CI) was constructed around the difference between the LSM of test and reference. The LSM differences and 90% CIs were retransformed to the original scale. No effect (prespecified) was declared if the 90% CIs of the LSM ratio were within the limits of 80.00–125.00%. The pharmacokinetics of etravirine was compared with historic data from DUET [21].

HIV-1 = conditions: for median etravirine FC (range): virologic failures (n = 12)
Description: The main inclusion criteria were HIV-1-infected adults who had previously received ≥1 antiretroviral regimen but failed ≤1 PI-based regimen and were currently on a stable but failing antiretroviral regimen (viral load [VL] > 500 copies/mL at screening) (Cobas Amplicor HIV-1 VL assay, Roche Molecular Systems, Inc., Branchburg, NJ, USA; assay performed by Covance Central Laboratory Services). Patients were required to be sensitive to atazanavir, etravirine, and the selected NRTIs (with the exception of emtricitabine or lamivudine) based on resistance testing at screening using the PhenoSense GT assay (Monogram Biosciences, South San Francisco, CA, USA). […] The clinical cut-offs used for etravirine and boosted atazanavir were 2.9–10.0 and 5.2, respectively.
During the treatment session, plasma VL was determined at baseline, Weeks 2 and 4, and monthly until Week 48. Virologic failures were classified as patients who were still in the study at Week 12 and (i) who never achieved two consecutive VL values < 50 copies/mL (nonresponders) or (ii) first achieved two consecutive VL values < 50 copies/mL followed by two consecutive VL values > 50 copies/mL or discontinued for any reason with VL > 50 copies/mL (rebounders). Changes in viral phenotype and genotype in virologic failures were determined using the PhenoSense GT assay.

[2] = TEACH pharmacokinetic substudy: addition of TDF for seven days to atazanavir/ritonavir and etravirine; conditions: adding TDF to ATV/r and etravirine, both ATV/r dose groups combined (7 patients), compared with Day −1
Description: The trial consisted of a ≤4-week screening period, a pretreatment period of two weeks (atazanavir/ritonavir 300/100 mg qd and two NRTIs), and a 48-week treatment period. Patients were randomized 1 : 1, by a computer-generated interactive web response system, to receive either atazanavir/ritonavir 300/100 mg qd or 400/100 mg qd (Figure 1). […] Atazanavir/ritonavir 400/100 mg qd was given to the other group to offset the potential reduction in atazanavir exposure, while at the same time investigating if the higher dose of atazanavir might further affect etravirine exposure. At baseline, in both groups, one of the two NRTIs was switched to etravirine 200 mg bid. NRTIs were selected by the investigators based on resistance testing; however, tenofovir disoproxil fumarate (TDF) was not permitted. Patients who were intolerant to their NRTI could switch to another sensitive NRTI, excluding TDF. Tenofovir decreases both atazanavir and etravirine exposure.
Seven patients participated in the pharmacokinetic substudy, 3 patients randomized to atazanavir/ritonavir 300/100 mg qd and 4 patients randomized to atazanavir/ritonavir 400/100 mg qd. Because of the small sample size, results of the two groups were combined.

[3] = parameters: method as in PMID 20881958; conditions: Pooled DUET: ETR 200 mg bid + DRV/r 600/100 mg bid, Week 4 (reference, n = 25), cited from earlier work
[4] = healthy volunteers; etravirine 800 mg bid (formulation TF035) and ATV/r 300/100 mg qd; cited from earlier work
[5] = Test 1 (with ATV/r 300/100 mg qd, Week 2) versus pooled DUET reference (ETR + DRV/r, Week 4)
[6] = Test 2 (with ATV/r 400/100 mg qd, Week 2) versus pooled DUET reference (ETR + DRV/r, Week 4)
[7] = with ATV/r 300/100 mg qd, compared with historic control data (DUET)
[8] = with ATV/r 400/100 mg qd, compared with historic data (DUET)

## COC(=O)N[C@H](C(=O)N[C@@H](Cc1ccccc1)[C@@H](O)CN(Cc1ccc(-c2ccccn2)cc1)NC(=O)[C@@H](NC(=O)OC)C(C)(C)C)C(C)(C)C [atazanavir]
[1]; human, in vivo, Test 1: ATV/r 300/100 mg qd + one NRTI + ETR 200 mg bid, Week 2, median (range), read-out: atazanavir t max
  Tmax: 3 h
HIV-1; virologic failures, baseline to endpoint
  change in atazanavir FC: no increase

## Cc1cc(C#N)cc(C)c1Oc1nc(Nc2ccc(C#N)cc2)nc(N)c1Br [etravirine]
[1]; [5]
  etravirine AUC0–12 h LSM ratio (90% CI) of test versus reference: 1.24 (0.88–1.76)
  etravirine C max LSM ratio (90% CI) of test versus reference: 1.06 (0.78–1.46)
  etravirine C min LSM ratio (90% CI) of test versus reference: 1.07 (0.60–1.90)
[1]; [6]
  etravirine AUC0–12 h LSM ratio (90% CI) of test versus reference: 0.84 (0.60–1.18)
  etravirine C max LSM ratio (90% CI) of test versus reference: 0.87 (0.65–1.18)
  etravirine C min LSM ratio (90% CI) of test versus reference: 0.83 (0.54–1.29)
[1]; [7]
  increase in etravirine AUC12 h: 24%
  increase in etravirine C max: 6%
  increase in etravirine C min: 7%
[1]; [8]
  decrease in etravirine AUC12 h: 16%
  decrease in etravirine C max: 13%
  decrease in etravirine C min: 17%
[2]
  decrease in etravirine AUC12 h: 15%
  decrease in etravirine C max: 19%
  etravirine AUC12 h LSM ratio [90% CIs]: 0.85 [0.79–0.92]
  etravirine C max LSM ratio [90% CIs]: 0.81 [0.72–0.91]
HIV-1; at baseline
  median etravirine FC (range): 0.73 (0.4–1.7)
HIV-1; at endpoint
  median etravirine FC (range): 2.99 (0.6–40.0)
[3]; mean ± SD
  etravirine AUC0–12 h: 7964 ± 11180 ng·h/mL
  etravirine C 0 h: 545.0 ± 818.6 ng/mL
  etravirine C max: 879.6 ± 1030 ng/mL
  etravirine C min: 452.6 ± 806.0 ng/mL
[3]; median (range)
  etravirine t max: 3.95 (0.08–6.08) h
[4]
  increase in etravirine AUC24 h: 1.3 fold
  increase in etravirine C min: 1.3 fold
